Some results are limits rather than exact numbers.

In test [1] the target is Sodium-dependent dopamine transporter (Rattus norvegicus, UniProt P23977). The test can be described thus: Displacement of [125I]RTI-55 from Dopamine transporter of rat striatal membrane. In general terms: Loss of bound radioactivity is the signal in a displacement assay; it reports binding, not function.
Test [2] concerns the target Sodium-dependent serotonin transporter (Rattus norvegicus, UniProt P31652). The test can be described thus: Displacement of [3H]paroxetine from Serotonin transporter of rat frontal cortex membrane. In kind it is tissue-based.
The target of test [3] is Monoamine transporters; serotonin & dopamine (Rattus norvegicus) (UniProt P31652+P23977). Description: Relative affinity for serotonin and Dopamine transporters. The test is classed as protein assay.
Chain of Monoamine transporters; serotonin & dopamine (Rattus norvegicus) (P23977 whole entry, looked up): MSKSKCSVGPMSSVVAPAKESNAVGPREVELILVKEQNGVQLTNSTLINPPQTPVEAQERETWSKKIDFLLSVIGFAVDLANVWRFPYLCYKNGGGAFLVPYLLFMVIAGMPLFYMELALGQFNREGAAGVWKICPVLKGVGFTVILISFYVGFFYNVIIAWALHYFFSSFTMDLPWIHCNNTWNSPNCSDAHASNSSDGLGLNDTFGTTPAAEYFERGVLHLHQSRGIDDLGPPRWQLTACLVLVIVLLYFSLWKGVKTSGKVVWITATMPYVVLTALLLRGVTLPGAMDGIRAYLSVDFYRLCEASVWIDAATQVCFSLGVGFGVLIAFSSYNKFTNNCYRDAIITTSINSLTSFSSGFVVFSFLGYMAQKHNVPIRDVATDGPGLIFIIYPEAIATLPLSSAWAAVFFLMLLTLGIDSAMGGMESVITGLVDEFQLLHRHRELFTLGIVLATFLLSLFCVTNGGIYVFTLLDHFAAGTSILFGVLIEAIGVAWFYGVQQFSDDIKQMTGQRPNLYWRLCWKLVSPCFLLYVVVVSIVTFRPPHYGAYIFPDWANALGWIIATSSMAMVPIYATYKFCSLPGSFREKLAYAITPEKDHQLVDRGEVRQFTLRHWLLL
Chain of Monoamine transporters; serotonin & dopamine (Rattus norvegicus) (P31652 whole entry, looked up): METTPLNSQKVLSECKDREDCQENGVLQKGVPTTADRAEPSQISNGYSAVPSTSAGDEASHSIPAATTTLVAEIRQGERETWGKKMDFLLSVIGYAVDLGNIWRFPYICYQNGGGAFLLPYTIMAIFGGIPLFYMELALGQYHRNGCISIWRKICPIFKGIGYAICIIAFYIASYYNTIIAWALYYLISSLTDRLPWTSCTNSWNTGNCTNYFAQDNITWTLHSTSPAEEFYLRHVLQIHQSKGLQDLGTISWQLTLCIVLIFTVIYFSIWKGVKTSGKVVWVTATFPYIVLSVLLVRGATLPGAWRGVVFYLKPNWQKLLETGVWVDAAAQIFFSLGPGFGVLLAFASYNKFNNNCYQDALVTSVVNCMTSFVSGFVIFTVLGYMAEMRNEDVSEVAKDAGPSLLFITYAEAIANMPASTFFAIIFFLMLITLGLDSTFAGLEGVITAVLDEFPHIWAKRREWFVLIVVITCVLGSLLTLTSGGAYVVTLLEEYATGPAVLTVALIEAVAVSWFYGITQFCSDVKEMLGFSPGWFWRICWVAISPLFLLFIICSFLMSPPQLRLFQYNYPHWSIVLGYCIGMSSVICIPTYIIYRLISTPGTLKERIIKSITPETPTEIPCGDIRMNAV

Chain of Sodium-dependent dopamine transporter (P23977 whole entry): as the sequence (P23977 whole entry, looked up) above
Chain of Sodium-dependent serotonin transporter (P31652 whole entry): as the sequence (P31652 whole entry, looked up) above

Consider `CCOC(=O)C1C2CCC(CC1c1ccc3c(ccn3CC)c1)N2` (centres undefined), for which the IC50 in test [1] worked out at 2.37 nM. In test [2], this compound had an inhibition constant (Ki) of 3.04 nM. Also, the Ratio in test [3] stood at 0.78.
The matching figures for `CCOC(=O)C1C(c2ccc3c(ccn3C)c2)CC2CCC1N2C` (centres undefined): 0.75 nM, 2.84 nM and 0.26.
For `CCOC(=O)C1C2CCC(CC1c1ccc(-c3cccn3C)cc1)N2` (centres undefined), the IC50 in test [1] amounted to 614 nM. The affinity in test [2] corresponds to a Ki of 1.05 nM. Moreover, the Ratio in test [3] amounted to 585.
Consider `CCOC(=O)C1C(c2ccc(-c3cccn3Cc3ccccc3)cc2)CC2CCC1N2C` (centres undefined), for which, in test [1], the IC50 is 58 nM. Further, in test [2], the inhibition constant Ki worked out at 59.2 nM. Further, the Ratio in test [3] was 0.98.
The matching figures for `CCOC(=O)C1C2CCC(CC1c1ccc(-c3ccc(-c4ccccc4)n3C)cc1)N2` (centres undefined): more than 1000 nM, 112 nM and more than 8.93.
The matching figures for `CCOC(=O)C1C2CCC(CC1c1ccc3c(ccn3C)c1)N2` (centres undefined): 2.73 nM, 1.74 nM and 1.57.
In turn, `CCOC(=O)C1C2CCC(CC1c1ccc(-c3cccn3CC)cc1)N2` (centres undefined) registered a 50% inhibitory concentration (IC50) in test [1] of more than 1000 nM. In test [2], this compound returned a Ki of 15.7 nM. In test [3], the Ratio was more than 63.7.
The corresponding values for `CCOC(=O)C1C(c2ccc(-c3cccn3CC)cc2)CC2CCC1N2C` (centres undefined) are more than 1000 nM, 337 nM and more than 2.97.
With `CCOC(=O)C1C(c2ccc3c(ccn3CC)c2)CC2CCC1N2C` (centres undefined), in test [1], the concentration for half-maximal inhibition (IC50) stood at 1.2 nM. Moreover, in test [2], the Ki stood at 5.54 nM. In addition, in test [3], the Ratio was 0.22.
The matching figures for `CCOC(=O)C1C(c2ccc(-c3cccn3C)cc2)CC2CCC1N2C` (centres undefined): 703 nM, 25.6 nM and 27.4.
With `CCOC(=O)C1C2CCC(CC1c1ccc(-c3c(C)ccn3C)cc1)N2` (centres undefined), in test [2], the Ki stood at 48.8 nM.
Turning to `CCOC(=O)C1C2CCC(CC1c1ccc(-c3ccc(C)n3C)cc1)N2` (centres undefined), the IC50 in test [1] is 825 nM. Moreover, affinity in test [2] was put at a Ki of 49.1 nM. In test [3], the Ratio was 16.8.
Take `CCOC(=O)C1C(c2ccc(-c3c(C)ccn3C)cc2)CC2CCC1N2C` (centres undefined): the IC50 in test [1] was more than 1000 nM. In test [2], this compound showed a Ki of more than 1000 nM.
Compound `CCOC(=O)C1C2CCC(CC1c1ccc(-c3cccn3Cc3ccccc3)cc1)N2` (centres undefined) showed a half-inhibitory concentration (IC50) in test [1] of 32.2 nM. This compound also gave a Ki in test [2] of 6.36 nM. Besides, the Ratio in test [3] was 5.06.

As a reminder, the IC50 is the concentration at which inhibition is half-maximal. A higher IC50 goes with a need for much substance. One may read the Ki as the equilibrium dissociation constant of an inhibitor or competing ligand from its target.
